{
  "source": "patent US20250224410A1",
  "about": "“READY-TO-[…] FOR CHEMICAL ANALYSES AND QUANTIFICATION OF ANALYTES IN BIOLOGICAL SAMPLES” (PinPoint Testing, LLC, priority 2021, published 2025)",
  "key": {"[1]": {"system": "purified recombinant beta glucuronidase (KURA)", "assay": "Storage stability of analytical standards in ready-to-use test kits at −20° C. with recombinant beta-glucuronidase", "type": "physicochemical", "settings": "for stability of the standard in ready-to-use kits (free drug degradant peak area normalized to codeine): kits made with suspended solid state and solid state (direct enzyme interface, urine matrix interface) technology, snap frozen at −20° C., LC-MS/MS", "procedure": "(§1) Both (A) purified recombinant beta glucuronidase (KURA) and (B) beta glucuronidase purified from abalone tissue show similar results. Complete degradation was estimated by incubating the buprenorphine glucuronic acid standard under optimum reaction conditions for 1 hr. Negative controls were processed like that of mixed kits but excluded the respective beta-glucuronidase enzyme to measure non-specific degradation. All samples were extracted with acetonitrile prior to analysis using a liquid chromatography tandem mass spectrometry method optimized for buprenorphine. Where possible beta-glucuronidase enzyme was removed from suspended solid state, direct enzyme, and urine matrix samples prior to extraction. Acetonitrile was directly added to frozen mixed kits and negative controls to immediately degrade the beta glucuronidase enzyme. Removal of enzyme prior to extraction and the quick addition of acetonitrile limited degradation associated with sample processing and provided a better measurement of storage stability. Peak area of the degradant (free drug) was normalized to the response of codeine which was included to control for day-to-day and analytical variation. Data are presented as average±standard deviation (n=3-4). All experimental groups were manufactured and snap frozen at −20° C. prior to analysis.\n(§2) Therefore, novel technology is required to stabilize process control specimens if ready-to-use formats are to be developed for analytical laboratories. Three new technologies (suspended solid state, direct enzyme interface, and urine matrix interface technology) were investigated to determine their utility in ready-to-use analytical test kit designs. While all three technologies afforded significant protection and stabilized the manufacturing process, only the suspended state and urine matrix technologies provided complete stability for 14 days in kits stored at −20° C.\n(§3) The amount of degradation is independent of the source of the beta glucuronidase and remains constant for 14 days when kits are stored at −20° C. This storage temperature was selected because it is mostly commonly utilized by analytical testing laboratories. Degradation is specifically associated with manufacturing and storage because acetonitrile used for sample extraction was added immediately to frozen kits to degrade the beta-glucuronidase enzyme prior to sample processing and where possible (solid-state, direct enzyme interface, and matrix interface samples) the beta-glucuronidase enzyme was removed prior to sample extraction. These measures minimized any degradation that may have occurred during sample processing.\nA 48-well plate from Innovative Labs (48 Rectangular Well U-Bottom 42.60 mm Height, 4.6 mL capacity) was formulated with various combinations of a mixture of glucuronidated drugs purchased from Cerilliant, Round Rock Texas, US (see details in table below), abalone enzyme (item #CST208) from ChemSci technologies, Belvidere IL, USA, Recombinant B-One (item #B-One-100 mL) enzyme from Kura Bioscience, buffer solution made with 5 mL of acetic acid and 7.71 g of ammonium acetate in 995 mL of pure water, and blank urine (item #OH2060) from Golden West Diagnostics.\nWells E1, F1, G1, and H1 designated as “Kura Pos. control drugs+Enz” contain the glucuronide drug standards in 50 μL DMSO mixed with […] of water and […] of Kura enzyme. The materials in this well were stored in frozen state before use.\nWells A3, B3, C3, and D3 designated as “DB pop removed Kura” contain the glucuronide drug standards in 50 μL DMSO and a suspended frozen mixture of […] of water and […] of Kura enzyme (see example 5: manufacturing process D). The materials in this well were stored in frozen state before use and the frozen enzyme and water mixture was removed prior to analysis of the well contents."}, "[2]": {"system": "beta glucuronidase purified from abalone tissue", "assay": "Storage stability of analytical standards in ready-to-use test kits at −20° C. with abalone beta-glucuronidase", "type": "physicochemical", "settings": "for stability of the standard, suspended solid state technology / stability of the standard, urine matrix interface technology: up to 14 days; for stability of the standard in ready-to-use kits (free drug degradant peak area normalized to codeine): kits made with suspended solid state and solid state (direct enzyme interface, urine matrix interface) technology, snap frozen at −20° C., LC-MS/MS", "procedure": "as §1\nFIG. 5. […] Negative controls were processed like that of mixed kits but excluded the respective beta-glucuronidase enzyme to measure non-specific degradation. Since 6-MAM was directly assayed complete degradation was estimated at the limit of detection (S/N≤10) established for the liquid chromatography tandem mass spectrometry method optimized for 6-MAM detection. All samples were extracted with acetonitrile prior to analysis. Where possible beta-glucuronidase enzyme was removed from suspended solid state, direct enzyme, and urine matrix samples prior to extraction. Acetonitrile was directly added to frozen mixed kits and negative controls to immediately degrade beta glucuronidase enzyme. Removal of enzyme prior to extraction and the quick addition of acetonitrile limited degradation associated with sample processing and provided a better measurement of storage stability. Peak area of 6-MAM was normalized to the response of codeine which was included to control for day-to-day and analytical variation. Data are presented as average±standard deviation (n=3-4). All experimental groups were manufactured and snap frozen at −20° C. prior to analysis.\nas §2, §3"}, "[3]": {"settings": "mixed kits, snap frozen and stored at −20° C."}, "[4]": {"settings": "kits stored at −20° C., up to 14 days"}},
  "note": "“Also recorded” adds a separate entry of the source.",
  "data": [
    {"smiles": "CC(=O)O[C@H]1C=C[C@H]2[C@H]3Cc4ccc(O)c5c4[C@@]2(CCN3C)[C@H]1O5", "note": "[6-MAM, 6-monoacetylmorphine]", "values": [
      {"measurement": "stability of the standard in kits that mix enzyme with the analytical standard", "setting": "[1]; [3]", "result": "no 6-MAM degradation occurred"},
      {"measurement": "stability of the standard, direct enzyme interface technology", "setting": "[2]; kits stored at −20° C.", "result": "slowed the rate of degradation but did not prevent 6-MAM degradation"},
      {"measurement": "stability of the standard, suspended solid state technology", "setting": "[2]; kits stored at −20° C.", "result": "fully protected; also recorded: fully protects and stabilizes"},
      {"measurement": "stability of the standard, urine matrix interface technology", "setting": "[2]; kits stored at −20° C.", "result": "slowed the rate of degradation but did not prevent 6-MAM degradation"},
      {"measurement": "time to significant degradation in mixed kits", "setting": "[2]; mixed kits stored at −20° C.", "result": "≤ 4", "unit": "days"},
      {"measurement": "stability of the standard in kits that mix enzyme with the analytical standard", "setting": "[2]; [3]", "result": "not stable"},
      {"measurement": "degradation during the manufacturing process (day 0) in mixed kits", "setting": "[2]; snap freezing at −20° C., day 0", "result": "no degradation occurred"}
    ]},
    {"smiles": "C[N+](C)(CCC=C1c2ccccc2CCc2ccccc21)[C@@H]1O[C@H](C(=O)[O-])[C@@H](O)[C@@H](O)[C@H]1O", "note": "[amitriptyline glucuronic acid standard, Amitriptyline N-beta-D-glucuronide]", "values": [
      {"measurement": "stability of the standard in ready-to-use kits (free drug degradant peak area normalized to codeine)", "setting": "[1]", "result": "fully protected and stabilized"},
      {"measurement": "stability of the standard in ready-to-use kits (free drug degradant peak area normalized to codeine)", "setting": "[2]", "result": "fully protected and stabilized"}
    ]},
    {"smiles": "CO[C@]12CC[C@@]3(C[C@@H]1[C@](C)(O)C(C)(C)C)[C@H]1Cc4ccc(O[C@@H]5O[C@H](C(=O)O)[C@@H](O)[C@H](O)[C@H]5O)c5c4[C@@]3(CCN1CC1CC1)[C@H]2O5", "note": "[buprenorphine glucuronic acid standard, Buprenorphine-3-beta-D-glucuronide]", "values": [
      {"measurement": "stability of the standard in ready-to-use kits (free drug degradant peak area normalized to codeine)", "setting": "[1]", "result": "fully protected and stabilized"},
      {"measurement": "stability of the standard in ready-to-use kits (free drug degradant peak area normalized to codeine)", "setting": "[2]", "result": "fully protected and stabilized"}
    ]},
    {"smiles": "CN1CC[C@]23c4c5ccc(O[C@@H]6O[C@H](C(=O)O)[C@@H](O)[C@H](O)[C@H]6O)c4O[C@H]2C(=O)CC[C@H]3[C@H]1C5", "note": "[hydromorphone glucuronic acid standard, Hydromorphone 3-beta-D-glucuronide]", "values": [
      {"measurement": "stability of the standard in ready-to-use kits (free drug degradant peak area normalized to codeine)", "setting": "[1]", "result": "fully protected and stabilized"},
      {"measurement": "stability of the standard in ready-to-use kits (free drug degradant peak area normalized to codeine)", "setting": "[2]", "result": "fully protected and stabilized"}
    ]},
    {"smiles": "O=C1Nc2ccc(Cl)cc2C(c2ccccc2Cl)=NC1O[C@@H]1O[C@H](C(=O)O)[C@@H](O)[C@H](O)[C@H]1O", "note": "(stereo partly shown) [lorazepam glucuronic acid standard, Lorazepam glucuronide]", "values": [
      {"measurement": "stability of the standard in ready-to-use kits (free drug degradant peak area normalized to codeine)", "setting": "[1]", "result": "fully protected and stabilized"},
      {"measurement": "day at which complete degradation occurred, direct enzyme interface technology", "setting": "[1]; kits stored at −20° C.", "result": 14, "unit": "day"},
      {"measurement": "day at which significant degradation was detected, direct enzyme interface technology", "setting": "[1]; kits stored at −20° C.", "result": 4, "unit": "day"},
      {"measurement": "storage time for which the standard was protected, direct enzyme interface technology", "setting": "[1]; kits stored at −20° C.", "result": 1, "unit": "day"},
      {"measurement": "stability of the standard, suspended solid state technology", "setting": "[1]; [4]", "result": "fully protected"},
      {"measurement": "stability of the standard, urine matrix interface technology", "setting": "[1]; [4]", "result": "fully protected"},
      {"measurement": "stability of the standard in ready-to-use kits (free drug degradant peak area normalized to codeine)", "setting": "[2]", "result": "fully protected and stabilized"},
      {"measurement": "day at which complete degradation occurred, direct enzyme interface technology", "setting": "[2]; kits stored at −20° C.", "result": 14, "unit": "day"},
      {"measurement": "day at which significant degradation was detected, direct enzyme interface technology", "setting": "[2]; kits stored at −20° C.", "result": 4, "unit": "day"},
      {"measurement": "storage time for which the standard was protected, direct enzyme interface technology", "setting": "[2]; kits stored at −20° C.", "result": 1, "unit": "day"},
      {"measurement": "stability of the standard, suspended solid state technology", "setting": "[2]; kits stored at −20° C.", "result": "fully protected"},
      {"measurement": "stability of the standard, urine matrix interface technology", "setting": "[2]; kits stored at −20° C.", "result": "fully protected"}
    ]}
  ]
}
